In paper PMC8541628, “Development of Novel Quinoline-Based Sulfonamides as Selective Cancer-Associated Carbonic Anhydrase Isoform IX Inhibitors” (International Journal of Molecular Sciences, 2021):

Q: For `COc1ccc2nccc(Nc3ccc(S(N)(=O)=O)cc3)c2c1` [13b, 4-((6-methoxyquinolin-4-yl)amino)benzenesulfonamide], which melting point is on record?
A: 250 to 252 °C
